31 compounds from patent publication US11028064B2, “Tricyclic heterocyclic derivatives and uses thereof” (AUCKLAND UNISERVICES LIMITED, priority 2016, dated 2021) can be followed below.

Each structure is given as a SMILES string.

For one assay, the target named is CSF-1R (FMS) (Homo sapiens (Human), UniProt P07333). Nature of the assay: SelectScreen Z'-LYTE kinase assay, Assay 336 for CSF-1R (FMS). The format is biochemical. The conditions noted are these: Z'-LYTE activity assay, 500 μM ATP (Km app); read-out: CSF-1R Enzyme IC50.
Chain of CSF-1R (FMS) (P07333 20-972): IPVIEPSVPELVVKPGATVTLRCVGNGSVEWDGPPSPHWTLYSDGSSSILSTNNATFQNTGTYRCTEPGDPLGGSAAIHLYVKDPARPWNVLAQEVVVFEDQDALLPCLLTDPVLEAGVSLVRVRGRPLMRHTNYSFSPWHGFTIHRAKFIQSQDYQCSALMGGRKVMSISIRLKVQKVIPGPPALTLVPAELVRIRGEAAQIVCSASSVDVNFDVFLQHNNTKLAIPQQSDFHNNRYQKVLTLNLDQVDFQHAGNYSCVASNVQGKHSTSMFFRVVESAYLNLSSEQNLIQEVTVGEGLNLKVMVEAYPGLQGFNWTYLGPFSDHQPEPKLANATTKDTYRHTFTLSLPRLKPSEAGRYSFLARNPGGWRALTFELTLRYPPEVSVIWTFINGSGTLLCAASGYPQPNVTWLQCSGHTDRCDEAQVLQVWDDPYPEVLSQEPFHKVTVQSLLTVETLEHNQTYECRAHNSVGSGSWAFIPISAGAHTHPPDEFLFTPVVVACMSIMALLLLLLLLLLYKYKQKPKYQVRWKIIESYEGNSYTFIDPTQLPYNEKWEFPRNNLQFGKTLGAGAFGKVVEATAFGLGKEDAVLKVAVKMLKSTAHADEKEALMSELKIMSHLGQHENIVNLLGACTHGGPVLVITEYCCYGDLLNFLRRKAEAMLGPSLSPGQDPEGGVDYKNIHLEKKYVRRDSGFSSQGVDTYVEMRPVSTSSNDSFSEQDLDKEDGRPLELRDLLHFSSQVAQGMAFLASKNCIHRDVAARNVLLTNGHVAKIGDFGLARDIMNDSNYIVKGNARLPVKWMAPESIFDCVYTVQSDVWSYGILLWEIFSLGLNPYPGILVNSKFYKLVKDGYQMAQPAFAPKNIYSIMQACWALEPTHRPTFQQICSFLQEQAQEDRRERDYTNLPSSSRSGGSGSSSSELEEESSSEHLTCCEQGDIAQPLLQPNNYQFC
Another assay deals with KDR (VEGFR2) (Homo sapiens (Human), UniProt P35968). Nature of the assay: SelectScreen Z'-LYTE kinase assay, Assay 540 for KDR (VEGFR2). The conditions noted are these: Z'-LYTE activity assay, 75 μM ATP (Km app); read-out: VEGFR2 Enzyme IC50. The format is biochemical.
Chain of KDR (VEGFR2) (P35968 20-1356): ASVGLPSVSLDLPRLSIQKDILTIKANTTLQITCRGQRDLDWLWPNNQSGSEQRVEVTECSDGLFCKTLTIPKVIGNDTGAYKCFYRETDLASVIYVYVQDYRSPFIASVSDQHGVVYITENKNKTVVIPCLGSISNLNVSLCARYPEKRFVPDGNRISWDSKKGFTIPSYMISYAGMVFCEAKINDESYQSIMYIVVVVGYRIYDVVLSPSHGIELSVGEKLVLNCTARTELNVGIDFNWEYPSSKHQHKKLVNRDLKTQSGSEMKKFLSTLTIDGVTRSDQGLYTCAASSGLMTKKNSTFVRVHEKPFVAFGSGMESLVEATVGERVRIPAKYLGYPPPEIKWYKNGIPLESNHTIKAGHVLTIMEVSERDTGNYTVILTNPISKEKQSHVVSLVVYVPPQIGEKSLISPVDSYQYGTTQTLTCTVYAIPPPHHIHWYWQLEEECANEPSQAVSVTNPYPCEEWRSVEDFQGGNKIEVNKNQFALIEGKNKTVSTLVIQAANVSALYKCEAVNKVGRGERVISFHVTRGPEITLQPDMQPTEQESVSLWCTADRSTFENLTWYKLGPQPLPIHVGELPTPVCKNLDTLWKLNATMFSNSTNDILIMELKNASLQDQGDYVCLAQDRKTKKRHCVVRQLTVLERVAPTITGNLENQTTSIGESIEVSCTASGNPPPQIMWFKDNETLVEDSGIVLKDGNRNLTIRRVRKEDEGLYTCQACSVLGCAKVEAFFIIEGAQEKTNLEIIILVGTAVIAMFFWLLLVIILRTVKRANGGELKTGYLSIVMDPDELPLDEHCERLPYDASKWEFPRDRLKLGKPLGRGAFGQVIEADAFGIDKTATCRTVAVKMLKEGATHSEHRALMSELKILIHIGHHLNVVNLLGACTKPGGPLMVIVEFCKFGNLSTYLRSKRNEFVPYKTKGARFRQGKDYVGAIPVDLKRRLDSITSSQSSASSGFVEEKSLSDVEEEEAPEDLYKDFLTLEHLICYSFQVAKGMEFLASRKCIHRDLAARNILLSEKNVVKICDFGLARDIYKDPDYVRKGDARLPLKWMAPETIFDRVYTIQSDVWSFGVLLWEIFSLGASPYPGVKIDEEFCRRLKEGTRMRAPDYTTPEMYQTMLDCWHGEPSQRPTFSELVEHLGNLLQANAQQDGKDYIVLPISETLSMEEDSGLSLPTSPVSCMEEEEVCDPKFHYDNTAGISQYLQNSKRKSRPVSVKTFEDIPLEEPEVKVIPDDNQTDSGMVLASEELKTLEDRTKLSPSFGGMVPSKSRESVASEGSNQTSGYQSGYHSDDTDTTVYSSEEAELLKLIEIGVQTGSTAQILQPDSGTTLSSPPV

Usually IC50 stands for the concentration that gives 50% inhibition. For the compound `Cc1cc(OCCN2CCN(CC(F)(F)F)CC2)c2oc3cc(Oc4ccc(CCC(=O)NC5CCCC5)nc4)ccc3c(=O)c2c1` [Example 59, N-Cyclopentyl-3-(5-((7-methyl-9-oxo-5-(2-(4-(2,2,2-trifluoroethyl)piperazin-1-yl)ethoxy)-9H-xanthen-3-yl)oxy)pyridin-2-yl)propanamide], the IC50 on CSF-1R (FMS) was below 0.1 µM; at KDR (VEGFR2), above 10 µM. For the compound `Cc1cc(OCCC2CCN(C)CC2)c2oc3cc(Oc4ccccc4)ccc3c(=O)c2c1` [Example 36, 2-Methyl-4-(2-(1-methylpiperidin-4-yl)ethoxy)-6-phenoxy-9H-xanthen-9-one], the IC50 lay within 0.1 to 1 µM at CSF-1R (FMS) and 1 to 10 µM at KDR (VEGFR2). The like results for `Cc1cc(OCCN(C)C)c2oc3cc(Sc4ccc(CCC(=O)NC5CCCC5)nc4)ccc3c(=O)c2c1` [Example 43, N-Cyclopentyl-3-(5-((5-(2-(dimethylamino)ethoxy)-7-methyl-9-oxo-9H-xanthen-3-yl)thio)pyridin-2-yl)propanamide] were, in that order, below 0.1 µM and 1 to 10 µM. The like results for `Cc1cc(OCCN(C)C)c2oc3cc(Oc4ccc(N)nc4)ccc3c(=O)c2c1` [Example 17, 6-((6-Aminopyridin-3-yl)oxy)-4-(2-(dimethylamino)ethoxy)-2-methyl-9H-xanthen-9-one] were, in that order, 0.1 to 1 µM and above 10 µM. `CNCCOc1cc(C)cc2c(=O)c3ccc(Oc4ccc(CCC(=O)NC5CCCC5)nc4)cc3oc12` [Example 29, N-Cyclopentyl-3-(5-((7-methyl-5-(2-(methylamino)ethoxy)-9-oxo-9H-xanthen-3-yl)oxy)pyridin-2-yl)propanamide]: the IC50 is below 0.1 µM at CSF-1R (FMS) and above 10 µM on KDR (VEGFR2). On to `Cc1cc(OCCCN(C)C)c2oc3cc(Oc4ccccc4)ccc3c(=O)c2c1` [Example 30, 4-[3-(Dimethylamino)propoxy]-2-methyl-6-phenoxy-9H-xanthen-9-one], for which the figures for the IC50 at CSF-1R (FMS) and at KDR (VEGFR2) were 0.1 to 1 µM and 1 to 10 µM, respectively. The like results for `COc1cc(Oc2ccc3c(=O)c4cc(C)cc(OCCN(C)C)c4oc3c2)cnc1OC` [Example 9, 6-((5,6-Dimethoxypyridin-3-yl)oxy)-4-(2-(dimethylamino)ethoxy)-2-methyl-9H-xanthen-9-one] were, in that order, below 0.1 µM and above 10 µM. The like results for `Cc1cc(OCCCN2CCOCC2)c2oc3cc(Oc4ccccc4)ccc3c(=O)c2c1` [Example 33, 2-Methyl-4-(3-morpholinopropoxy)-6-phenoxy-9H-xanthen-9-one] were, in that order, 0.1 to 1 µM and above 10 µM. `Cc1cc(OCCN(C)C)c2oc3cc(Oc4ccc(CCNC(=O)C5CCCC5)nc4)ccc3c(=O)c2c1` [Example 26, N-(2-(5-((5-(2-(Dimethylamino)ethoxy)-7-methyl-9-oxo-9H-xanthen-3-yl)oxy)pyridin-2-yl)ethyl)cyclopentanecarboxamide]: on CSF-1R (FMS), the IC50 is below 0.1 µM. Same read-out and setting: with `Cc1cc(OCCN2C[C@@H](C)N[C@@H](C)C2)c2oc3cc(Oc4ccc(CCC(=O)NC5CCCC5)nc4)ccc3c(=O)c2c1` [Example 61, N-Cyclopentyl-3-(5-((5-(2-((3S,5R)-3,5-dimethylpiperazin-1-yl)ethoxy)-7-methyl-9-oxo-9H-xanthen-3-yl)oxy)pyridin-2-yl)propanamide] the figure was below 0.1 µM. For the compound `Cc1cc(OCCN(C)C)c2oc3cc(Oc4cccc(C(=O)Nc5ccccc5)c4)ccc3c(=O)c2c1` [Example 5, 3-((5-(2-(Dimethylamino)ethoxy)-7-methyl-9-oxo-9H-xanthen-3-yl)oxy)-N-phenyl-benzamide], the IC50 on KDR (VEGFR2) was 1 to 10 µM.

For the compound `Cc1cc(OCCN2CCOCC2)c2oc3cc(Oc4ccc(CCC(=O)NC5CCCC5)nc4)ccc3c(=O)c2c1` [Example 56, N-Cyclopentyl-3-[5-({7-methyl-5-[2-(4-morpholinyl)ethoxy]-9-oxo-9H-xanthen-3-yl}oxy)-2-pyridinyl]propanamide], the IC50 at CSF-1R (FMS) is below 0.1 µM. The same measure, in the same setting: the value for `CCN1CCN(CCCOc2cc(C)cc3c(=O)c4ccc(Oc5ccc(CCC(=O)NC6CCCC6)nc5)cc4oc23)CC1` [Example 65, N-Cyclopentyl-3-(5-((5-(3-(4-ethylpiperazin-1-yl)propoxy)-7-methyl-9-oxo-9H-xanthen-3-yl)oxy)pyridin-2-yl)propanamide] was below 0.1 µM; that for `Cc1cc(OCCN(C)C)c2oc3cc(Oc4ccc(CCC(=O)NC5CCCC5)nc4)ccc3c(=O)c2c1` [Example 22, N-Cyclopentyl-3-(5-((5-(2-(dimethylamino)ethoxy)-7-methyl-9-oxo-9H-xanthen-3-yl)-oxy)pyridin-2-yl)propanamide] was below 0.1 µM; that for `Cc1cc(OCCC2CCCN2C)c2oc3cc(Oc4ccc(CCC(=O)NC5CCCC5)nc4)ccc3c(=O)c2c1` (stereo not drawn) [Example 75, N-Cyclopentyl-3-(5-((7-methyl-5-(2-(1-methylpyrrolidin-2-yl)ethoxy)-9-oxo-9H-xanthen-3-yl)oxy)pyridin-2-yl)propanamide] was below 0.1 µM. On the same count and under the same terms, with `COc1ccc(CCc2ccc(Oc3ccc4c(=O)c5cc(Cl)cc(OCCN(C)C)c5oc4c3)cn2)cc1` [Example 41, 2-Chloro-4-[2-(dimethylamino)ethoxy]-6-({6-[2-(4-methoxyphenyl)ethyl]-3-pyridinyl}oxy)-9H-xanthen-9-one] the figure was 0.1 to 1 µM; with `COc1cc(OCCN(C)C)cc2c(=O)c3ccc(Oc4ccc(CCC(=O)NC5CCCC5)nc4)cc3oc12` [Example 46, N-Cyclopentyl-3-(5-((7-(2-(dimethylamino)ethoxy)-5-methoxy-9-oxo-9H-xanthen-3-yl)oxy)pyridin-2-yl)propanamide], below 0.1 µM; with `COc1ccc(COc2ncc(Oc3ccc4c(=O)c5cc(C)cc(OCCN(C)C)c5oc4c3)cc2OC)cc1` [Example 12, 4-(2-(Dimethylamino)ethoxy)-6-((5-methoxy-6-((4-methoxybenzyl)oxy)pyridin-3-yl)oxy)-2-methyl-9H-xanthen-9-one], below 0.1 µM. `COc1ccc(COc2ccc(Oc3ccc4c(=O)c5cc(C)cc(OCCN(C)C)c5oc4c3)cn2)cn1` [Example 11, 4-(2-(Dimethylamino)ethoxy)-6-((6-((6-methoxypyridin-3-yl)methoxy)pyridin-3-yl)oxy)-2-methyl-9H-xanthen-9-one]: the IC50 on CSF-1R (FMS) was below 0.1 µM. On the same count and under the same terms, the value for `Cc1cc(OCCCN2C[C@@H](C)N(C)[C@@H](C)C2)c2oc3cc(Oc4ccc(CCC(=O)NC5CCCC5)nc4)ccc3c(=O)c2c1` [Example 68, N-Cyclopentyl-3-(5-((7-methyl-9-oxo-5-(3-((3S,5R)-3,4,5-trimethylpiperazin-1-yl)propoxy)-9H-xanthen-3-yl)oxy)pyridin-2-yl)propanamide] was below 0.1 µM. Turning to `Cc1cc(OCCN)c2oc3cc(Oc4ccc(CCC(=O)NC5CCCC5)nc4)ccc3c(=O)c2c1` [Example 28, 3-(5-((5-(2-Aminoethoxy)-7-methyl-9-oxo-9H-xanthen-3-yl)oxy)pyridin-2-yl)-N-cyclopentylpropanamide], the IC50 on CSF-1R (FMS) was below 0.1 µM.

For `Cc1cc(OCCCN2[C@H](C)CCC[C@@H]2C)c2oc3cc(Oc4ccc(CCC(=O)NC5CCCC5)nc4)ccc3c(=O)c2c1` [Example 64, N-Cyclopentyl-3-(5-((5-(3-((2R,6S)-2,6-dimethylpiperidin-1-yl)propoxy)-7-methyl-9-oxo-9H-xanthen-3-yl)oxy)pyridin-2-yl)propanamide], the IC50 at CSF-1R (FMS) was below 0.1 µM.

Consider `Cc1cc(OCCCN(C)C)c2oc3cc(Oc4ccc(CCC(=O)NC5CCCC5)nc4)ccc3c(=O)c2c1` [Example 63, N-Cyclopentyl-3-(5-((5-(3-(dimethylamino)propoxy)-7-methyl-9-oxo-9H-xanthen-3-yl)oxy)pyridin-2-yl)propanamide], for which the IC50 on CSF-1R (FMS) was below 0.1 µM. Still for that read-out and setting: with `CN(C)CCOc1cc(Cl)cc2c(=O)c3ccc(Oc4cccc(C(=O)Nc5ccccc5)c4)cc3oc12` [Example 40, 3-({7-Chloro-5-[2-(dimethylamino)ethoxy]-9-oxo-9H-xanthen-3-yl}oxy)-N-phenylbenzamide] the figure was below 0.1 µM. Still for that read-out and setting: the value for `Cc1cc(OCC2CCCCN2C)c2oc3cc(Oc4ccc(CCC(=O)NC5CCCC5)nc4)ccc3c(=O)c2c1` (stereo not drawn) [Example 74, N-Cyclopentyl-3-(5-((7-methyl-5-((1-methylpiperidin-2-yl)methoxy)-9-oxo-9H-xanthen-3-yl)oxy)pyridin-2-yl)propanamide] was below 0.1 µM.

Consider `COc1ccc(CNc2ccc(Oc3ccc4c(=O)c5cc(C)cc(OCCN(C)C)c5oc4c3)cn2)cc1` [Example 14, 4-(2-(Dimethylamino)ethoxy)-6-((6-((4-methoxybenzyl)amino)pyridin-3-yl)oxy)-2-methyl-9H-xanthen-9-one], for which the half-maximal inhibitory concentration (IC50) on CSF-1R (FMS) was below 0.1 µM. The same measure, in the same setting: the value for `Cc1cc(OCCN(C)C)c2oc3cc(Oc4ccc(CCNC(=O)N5CCCC5)nc4)ccc3c(=O)c2c1` [Example 27, N-(2-(5-((5-(2-(Dimethylamino)ethoxy)-7-methyl-9-oxo-9H-xanthen-3-yl)oxy)pyridin-2-yl)ethyl)pyrrolidine-1-carboxamide] was below 0.1 µM; that for `Cc1cc(OC2CCCN(C)C2)c2oc3cc(Oc4ccc(CCC(=O)NC5CCCC5)nc4)ccc3c(=O)c2c1` (stereo not drawn) [Example 60, N-Cyclopentyl-3-(5-((7-methyl-5-((1-methylpiperidin-3-yl)oxy)-9-oxo-9H-xanthen-3-yl)oxy)pyridin-2-yl)propanamide] was below 0.1 µM; that for `COc1ccc(CCc2ccc(Oc3ccc4c(=O)c5cc(C)cc(OCCN(C)C)c5sc4c3)cn2)cc1` [Example 50, 4-(2-(Dimethylamino)ethoxy)-6-((6-(4-methoxyphenethyl)pyridin-3-yl)oxy)-2-methyl-9H-thioxanthen-9-one] was below 0.1 µM.

Regarding `Cc1cc(OCCN(C)C)c2sc3cc(Oc4ccccc4)ccc3c(=O)c2c1` [Example 48, 4-(2-(Dimethylamino)ethoxy)-2-methyl-6-phenoxy-9H-thioxanthen-9-one], on CSF-1R (FMS), the IC50 fell in the range of 0.1 to 1 µM. `Cc1cc(OC2CCN(C)CC2)c2oc3cc(Oc4ccc(CCC(=O)NC5CCCC5)nc4)ccc3c(=O)c2c1` [Example 71, N-Cyclopentyl-3-[5-({7-methyl-5-[(1-methyl-4-piperidinyl)oxy]-9-oxo-9H-xanthen-3-yl}oxy)-2-pyridinyl]propanamide]: at KDR (VEGFR2), the 50% inhibitory concentration (IC50) was 1 to 10 µM.
